Results on three compounds are retold here after patent US20220202756A1, “GENETIC VARIANTS ASSOCIATED WITH RESPONSE TO TREATMENT OF NEUROLOGICAL DISORDERS” (VISTAGEN THERAPEUTICS, INC., priority 2019, published 2022).

The structures appear in SMILES notation.

Data set [1] addresses T1, LAT1 transporter (Homo sapiens, UniProt Q01650).
T1 construct: expressed in transfected cells; host or cells: HEK-293
As to the kind of experiment: AV-101 uptake in HEK-293 cells overexpressing LAT1. Format: cell-based. The source says:
The L-Type Amino Acid Transporter 1 (LAT1, SLC7A5) is part of the SLC7 family and forms a heterodimer with CD98 via a disulphide bond (Mastroberardino, L. et al. Amino-acid transport by heterodimers of 4F2hc/CD98 and members of a permease family. Nature 395, 288-291, doi: 10.1038/26246 (1998)). CD98 (4F2hc, SLC3A2) is a type II glycoprotein that functions as a chaperone for LAT1, stabilizing and facilitating its translocation to the plasma membrane. LAT1 is the functional unit of the complex (Napolitano, L. et al. LAT1 is the transport competent unit of the LAT1/CD98 heterodimeric amino acid transporter. The international journal of biochemistry & cell biology, doi: 10.1016/j.biocel.2015.08.004 (2015)) and substrates include a range of large neutral amino acids such as tyrosine, leucine, isoleucine, valine and phenylalanine as well as pharmaceutical drugs including L-DOPA and gabapentin. (Dickens, D. et al. Transport of gabapentin by LAT1 (SLC7A5). Biochem Pharmacol 85, 1672-1683, doi: 10.1016/j.bcp.2013.03.022 (2013); Uchino, H. et al. Transport of amino acid-related compounds mediated by L-type amino acid transporter 1 (LAT1): insights into the mechanisms of substrate recognition. Molecular pharmacology 61, 729-737 (2002)). The SLC7A5 locus with rsid rs28582913 has a single nucleotide polymorphism, wherein the minor allele, T instead of C, at position 87843494 on chromosome 16, is present in approximately 18-56% of the population depending on ethnicity (https://www.ncbi.nlm.nih.gov/snp/rs28582913#frequency_tab), and results in a 1.94 fold increase in the kynurenine metabolite. […] Additionally, physiological amino acids reduce LAT1 mediated transport of AV-101.

In data set [2] the test system is Human brain endothelial cells. Kind of data set: AV-101 uptake in human brain endothelial cells. Type of data set: cell-based. The source says: The L-Type Amino Acid Transporter 1 (LAT1, SLC7A5) is part of the SLC7 family and forms a heterodimer with CD98 via a disulphide bond (Mastroberardino, L. et al. Amino-acid transport by heterodimers of 4F2hc/CD98 and members of a permease family. Nature 395, 288-291, doi: 10.1038/26246 (1998)). CD98 (4F2hc, SLC3A2) is a type II glycoprotein that functions as a chaperone for LAT1, stabilizing and facilitating its translocation to the plasma membrane. LAT1 is the functional unit of the complex (Napolitano, L. et al. LAT1 is the transport competent unit of the LAT1/CD98 heterodimeric amino acid transporter. The international journal of biochemistry & cell biology, doi: 10.1016/j.biocel.2015.08.004 (2015)) and substrates include a range of large neutral amino acids such as tyrosine, leucine, isoleucine, valine and phenylalanine as well as pharmaceutical drugs including L-DOPA and gabapentin. (Dickens, D. et al. Transport of gabapentin by LAT1 (SLC7A5). Biochem Pharmacol 85, 1672-1683, doi: 10.1016/j.bcp.2013.03.022 (2013); Uchino, H. et al. Transport of amino acid-related compounds mediated by L-type amino acid transporter 1 (LAT1): insights into the mechanisms of substrate recognition. Molecular pharmacology 61, 729-737 (2002)). […]

The conditions of data set [3]: cited from earlier work; for crossing of the blood-brain barrier / access to the CNS: after administration.
Data set [4] has as its system depression, major depressive disorder. Kind of data set: Treatment of depression / MDD in genotyped subjects. Format: in vivo, human. The source says: In subjects with the BDNF variant, the A allele of the SNP rs6265 a higher dose of the L-4-CI-KYN results in the mood-enhancing or anti-depressive response. Subjects affirmatively report feelings of well-being. This is consistent with reports that the glutamatergic system contributes to the pathophysiology of depression and that stress can induce changes in NMDA receptors. See, for example, Calabrese, et al., PloS one vol. 7,5 (2012): e37916. Twenty-five subjects, both male and female, ages 18 to 65, with a diagnosis of MDD are treated with either L-4-CI-KYN (1,080 or 1,440 mg/day given orally) for 2 weeks, similar in design to similar studies. See e.g., Ibrahim et al. J Clin Psychopharmacol. 2012 August; 32(4): 551-557; Zarate et al. Biol Psychiatry. 2013 Aug. 15; 74(4):257-64; Zarate et al. Arch Gen Psychiatry. 2006 August; 63(8):856-64; Zarate et al. 2005 Biological psychiatry 57 (4), 430-432. The subjects are pre-screened to be positive for at least one of the following variant SNPs, the T allele of SNP rs61825638, the T allele of SNP rs28582913, or the C allele of rs2121337, or positive for the G allele of rs6265. In addition, a control group of twenty-five subjects is pre-screened as lacking any of: the T allele of SNP rs61825638, the T allele of SNP rs28582913, or the C allele of rs2121337, or lacking the G allele of SNP rs6265. […] Montgomery et al. 1979, Brit. J. Psych., 134:382-389. […]

T1 sequence (Q01650 whole entry): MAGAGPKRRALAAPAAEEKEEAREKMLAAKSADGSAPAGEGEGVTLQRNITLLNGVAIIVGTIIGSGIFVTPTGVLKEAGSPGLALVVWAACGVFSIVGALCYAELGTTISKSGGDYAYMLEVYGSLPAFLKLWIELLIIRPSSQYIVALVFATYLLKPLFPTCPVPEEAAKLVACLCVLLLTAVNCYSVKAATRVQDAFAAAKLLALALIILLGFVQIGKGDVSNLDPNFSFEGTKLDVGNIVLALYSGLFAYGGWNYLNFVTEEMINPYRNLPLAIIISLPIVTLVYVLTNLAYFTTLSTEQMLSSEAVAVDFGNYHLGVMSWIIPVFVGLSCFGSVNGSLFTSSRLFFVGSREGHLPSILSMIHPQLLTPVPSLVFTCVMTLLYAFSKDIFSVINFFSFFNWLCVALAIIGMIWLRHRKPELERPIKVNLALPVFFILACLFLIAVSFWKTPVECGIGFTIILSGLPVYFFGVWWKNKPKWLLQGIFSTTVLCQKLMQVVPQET
T1 sequence (P08195 102-630 partner): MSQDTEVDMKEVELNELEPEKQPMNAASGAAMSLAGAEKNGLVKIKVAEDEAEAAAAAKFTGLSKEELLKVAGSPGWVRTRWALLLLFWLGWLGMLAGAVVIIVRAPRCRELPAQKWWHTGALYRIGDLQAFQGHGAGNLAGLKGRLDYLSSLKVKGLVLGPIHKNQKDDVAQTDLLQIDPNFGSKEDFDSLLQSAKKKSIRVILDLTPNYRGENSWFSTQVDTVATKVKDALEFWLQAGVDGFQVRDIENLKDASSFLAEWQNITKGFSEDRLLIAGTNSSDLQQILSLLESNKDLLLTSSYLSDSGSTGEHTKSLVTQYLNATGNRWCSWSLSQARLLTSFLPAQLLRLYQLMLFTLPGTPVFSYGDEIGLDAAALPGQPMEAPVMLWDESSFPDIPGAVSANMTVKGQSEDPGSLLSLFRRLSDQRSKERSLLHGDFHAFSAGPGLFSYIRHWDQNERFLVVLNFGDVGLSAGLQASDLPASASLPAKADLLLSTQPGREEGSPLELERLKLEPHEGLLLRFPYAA

As to `Nc1cc(COc2c(Cl)cc(C[C@H](N)C(=O)O)cc2Cl)c2oc(-c3ccccc3)nc2c1` [JPH203, reference compound], the “effect on AV-101 uptake” value in data set [1] (LAT1 inhibitor added, HEK-293 cells overexpressing LAT1) is “substantially reduced”; in data set [2] (in the presence of JPH203) it was “significantly diminished”.
As to `Nc1cc(Cl)ccc1C(=O)CC(N)C(=O)O` [L-4-CI-KYN, L-4-chlorokynurenine], the “crossing of the blood-brain barrier / access to the CNS” value in data set [3] is on record as “readily gains access to the central nervous system”. The “conversion to 7-chlorokynurenic acid” value in data set [3] (within activated astrocytes) is on record as “efficiently converted”. Also, in data set [1], the “substrate status for the LAT1 transporter” value is “substrate for the LAT1 transporter”. Moreover, the results for the AV-101 uptake entry in data set [1] (HEK-293 cells overexpressing LAT1) and in data set [2] were “substantial increase” and “significant uptake”, respectively. Moreover, the “HDRS and/or MADRS total scores” value in data set [4] (MDD subjects, 1,080 or 1,440 mg/day orally for 2 weeks) was “significant decrease”. The “mood enhancing or anti-depressive activity” value in data set [4] (subjects with KMO rs61825638 T, SLC7A5 rs28582913 T or ACMSD rs2121337 C variant) is on record as “observed for a higher number of subjects, or for the same number of patients but at a lower dose”.
On to `O=C(O)c1cc(O)c2ccc(Cl)cc2n1` [7-chlorokynurenic acid, reference compound], for which the “crossing of the blood-brain barrier / access to the CNS” value in data set [3] is listed as “does not cross the blood-brain barrier”.
